# Results from US20240067603A1, “CUBANYL BIGUANIDE COMPOUNDS” (REGENTS OF THE UNIVERSITY OF MINNESOTA, priority 2020, published 2024).
# Read-outs that look alike come from different tables or passages of the source.
# Tests used:
# LR/FR MCF7A1C cells = assay: Crystal violet cell proliferation assay, LR,FR-MCF7AC1; type: cell-based, human; conditions: for IC50: Homo sapiens, read-out: IC50, LR/FR MCF7A1C cells
# Description: Derivation process of LR-FR- and LR-FR-PR resistant MCF7AC1 cells. The letrozole-resistant MCF7AC1 cell line (LR-MCF7AC1) was generated in vivo from the aromatase-expressing MCF7A C1 tumor-bearing athymic female nude mice that received letrozole therapy (10 μg/day, five days a week) over a period of 27 weeks. To facilitate tumor growth mice also received the estrogen precursor androstenedione (100 μg/day, five days a week), which is intratumorally converted by aromatase into estradiol (Yue W, et al. Cancer Res. 1994; 54(19):5092-5). With the emergence of the letrozole resistant tumors, these tumors were harvested from in vivo and the LR-MCF7AC1 cell line was established in vitro (Jayaraman S., et al. Breast Cancer Res. 2020; 22(1):51), where the cells grew in phenol-red free IMEM+10% FBS media containing antibiotics.
# In a second in vivo study, the LR-MCF7AC1 tumor-bearing athymic female nude mice were randomized to multiple endocrine therapies including fulvestrant therapy (1000 μg/day, five days a week). One mouse harboring the LR-MCF7AC1 tumor began to develop resistance to fulvestrant therapy at 31 weeks of treatment. This fulvestrant-resistant LR-MCF7AC1 tumor was harvested from mice and reimplanted into mice for two successive generations. The 2nd generation tumor was harvested from in vivo and the LR,FR-MCF7AC1 cell line was established in vitro, where the cells grew in phenol-red free IMEM+10% FBS media containing antibiotics.
# Cell proliferation assay: The cells mentioned in this study were seeded in 96 wells-plates (2000-4000 cells/well) and treated 24 hours later with DMSO (vehicle control), HCB or HBB drugs at the indicated concentrations. 72 hours later, the cells were fixed in situ with 25% (v/v) glutaraldehyde, followed by staining with 0.52% crystal violet (CV) in 25% methanol (Fisher Chemical). The CV stained plates were solubilized in 100 mM sodium citrate in 50% ethanol solution and absorbance of the stain measured at 550 nm using a plate reader. Each data point represents mean±SD, obtained from six wells per treatment performed in biological triplicates. […]
# [1] = test system: 293T human embryonic kidney cells over-expressing the ACE2 receptor; assay: Cytotoxicity assay in 293T/ACE2 cells; conditions: 293T/ACE2 cytotoxicity
# [2] = Cytotoxicity assay in 293T/ACE2 cells; conditions: human, HEK293T/17 cells expressing human ACE2
# [3] = Pharmacokinetics in mice plasma (LC-MS/MS); type: in vivo; conditions: for AUC, subcutaneous vs IV, intraperitoneal or oral: FIGS. 14-15; for HL_Lambda_z: mice plasma; for Cmax / Tmax: mouse, plasma
# Description: HBB PK method: HBB in mice plasma was determined with an LC-MS/MS method using d5-HBB as the internal standard.
# Sample preparation: HBB in 150 μL mice plasma was extracted by addition of 300 μL acetonitrile spiked with d5-HBB internal standard (0.5 ug/ml). The extraction mixture was centrifuged at 12,000×g for 5 minutes and 150 μL of supernatant was saved for LC-MS/MS analysis.
# (§1) LC-MS/MS method: A Quattro Ultima mass spectrometer (Waters, Milford, MA) equipped with an Acquity UPLC (Waters, Milford, MA) and interfaced through an MassLynx software (Waters, Milford, MA) was used. HBB and d5-HBB were resolved at base line with a Zorbax Eclipse XDG-C18 column (4.6×50 mm, 1.8 micron) (Agilent, Santa Clara, CA). Mobile phases were A: water (0.1% formic acid) and B: acetonitrile (0.1% formic acid). The flow rate was 250 μL/min. Elution gradient was as follow: 0-5 min, 90% A and 10% B; 5 min, 10% A and 90% B; 5.25 min, 90% A and 10% B; 10 min, 90% A and 10% B. At positive mode, ion transition for HBB 276.01 mz to 91.02 mz and d5-HBB 281.09 to 96.06 were monitored.
# Quantification: Quantitation was carried out by the MassLynx software based on an HBB standard curve (1.5-1500 ng/ml). Per FDA bioanalytical method validation guideline, standards and plasma samples were bracketed with QC samples to ensure accuracy and precision of the measurement.
# HCB PK method: HCB in mouse plasma was determined with an LC-MS/MS method using d5-HBB as the internal standard.
# Sample preparation: HCB in 150 μL mice plasma was extracted by addition of 300 μL acetonitrile spiked with d5-HBB internal standard (0.5 ug/ml). The extraction mixture was centrifuged at 12,000×g for 5 minutes and 150 μL of supernatant was saved for LC-MS/MS analysis.
# as §1, with “used. Neo biguanide” for “used. HBB”, “Eclipse XDB-C18 Rapid Resolution HT (P.M. 927975-902)” for “Eclipse XDG-C18”, “for” for “for HBB 276.01 mz to 91.02 mz and”, “96.06 and corresponding neo biguanide parent daughter ion transition” for “96.06”
# Quantification: Quantitation was carried out by the MassLynx software based on an HCB standard curve (1.5-1500 ng/ml). Per FDA bioanalytical method validation guideline, standards and plasma samples were bracketed with QC samples to ensure accuracy and precision of the measurement.
# in vitro = conditions: African green monkey, Vero E6 cells
# MDA-MB-231 = assay: Inhibition of mammary carcinoma cell line MDA-MB-231; type: cell-based; conditions: Table 5; MDA-MB-231, human, Basal, HER2−
# Description: 3-(4,5-Dimethylthiazol-2-yl)-2,5-diphenyltetrazolium Bromide (MTT) Cell Proliferation Assay. To cells grown in 96-well-tissue culture plate, 20 μl/well of MTT solution (5 mg/ml in PBS) was added. After 1-2 hours incubation at 37° C., the plate was centrifuged. Supernatant was discarded and 100 μl DMSO was added to dissolve water insoluble formazan, and the absorbance was read at 540 nm with a plate reader.
smiles,measurement,setting,value
"CCCCCCNC(=N)NC(=N)NCc1ccccc1 [HBB, N1-hexyl-N5-benzyl-biguanide]",IC50,LR/FR MCF7A1C cells; 72 h,3.9 µM
same,CC10,[1],1.5 µM
same,CC50,[2],26 µM
same,"AUC, subcutaneous vs IV, intraperitoneal or oral",[3],better AUC
same,Cl_F_obs,[3]; IP,88.25 mL/min/kg
same,Vz_F_obs,[3]; IP,62.842 L/kg
same,HL_Lambda_z,[3]; IP,8.23 h
same,Cl_obs,[3]; IV,50.65 mL/min/kg
same,Vz_obs,[3]; IV,32.933 L/kg
same,HL_Lambda_z,[3]; IV,7.51 h
same,Cl_F_obs,[3]; SC,32.89 mL/min/kg
same,Vz_F_obs,[3]; SC,23.131 L/kg
same,"fold greater AUC, subcutaneous than ip",[3]; SC vs ip,2.6 fold
same,HL_Lambda_z,[3]; SC,8.13 h
same,Cmax,[3]; ip,1840 ng/mL
same,Tmax,[3]; ip,1 min
same,Cmax,[3]; iv,20100 ng/mL
same,Tmax,[3]; iv,1 min
same,Cmax,[3]; sc,1860 ng/mL
same,Tmax,[3]; sc,5 min
same,CC50 at 48 h,in vitro,> 20 µM
same,IC50,MDA-MB-231,18.5 µM
"CCCCCCNC(=N)NC(=N)NCC12C3C4C5C3C1C5C42 (centres unmarked) [HCB, Hexyl Cubanomethyl Biguanide]",IC50,"LR/FR MCF7A1C cells; letrozole- and fulvestrant-resistant, 72 hours, crystal violet",1.3 µM
same,"fold increase in sensitivity, HCB vs HBB",LR/FR MCF7A1C cells; LR/FR and LR/FR/PR MCF7A1C cells,~3 fold
same,CC10,[1],1.04 µM
same,CC50,[2],7.2 µM
same,"AUC, subcutaneous vs IV, intraperitoneal or oral",[3],better AUC
same,CC50 at 48 h,in vitro,13.3 µM
same,IC50,MDA-MB-231,15.4 µM
